One test deals with hepatic artery. Kind of test: Hepatic artery blood flow after intravenous acetazolamide. Type of test: in vivo. Particulars: 100 mg/kg intravenously; for Blood flow in the hepatic artery: before about 2.8 ml/min. The text has this:
The amount of vasoactive agent administered to the subject to cause a noticeable increase or decrease in blood flow to the tissue of interest will depend on the specific agent administered to the subject.

For the next test, the system named is VX2 tumor. Kind of test: Functional CT perfusion before and after acetazolamide, tumor peripheral rim. The class given is in vivo, New Zealand White rabbits. To be noted: peripheral rim of untreated tumor, day 28; acetazolamide 50 mg/kg IV; mean±SE. The text has this:
(§1) All animal procedures were approved by the Institutional Animal Care and Use Committee at Case Western Reserve University. The VX2 tumor, a xenograft hepatoma model used frequently in radiological studies, was donated by S, Nahum Goldberg MD, (Beth Israel Medical Center, Boston, Mass.). Tumor was initiated in livers of 5 male New Zealand White rabbits weighing 3 kg (Covance, Princeton, N.J.) using methods described previously. The tumor was first propagated in the thigh of a donor rabbit, where a suspension of tumor cells was injected intramuscularly into one thigh. The tumor was grown until the palpated size reached approximately 1 cm^3 and was harvested from anesthetized animals using sterile techniques. Pieces of the tumor (4 mm^3) were cut, placed in 10% DMSO in pure calf's serum, and stored in liquid nitrogen.
(§2) For implantation in the liver, frozen tumor was rapidly thawed and washed. Rabbits were anesthetized using a combination of xylazine (5 mg/kg), ketamine (50 mg/kg), acepromazine (2 mg/kg) and atropine (0.2 mg/kg). The abdomen was shaved and cleaned, and the liver was exposed. A piece of tumor was then inserted into the liver parenchyma and the incisions were closed. During recovery, all animals received Buprenex (0.5 mg/kg) for pain management and a subcutaneous injection of 25 ml of 0.9% saline. Additional Buprenex and saline were given as needed.
(§3) Liver perfusion maps were created 28 days after initiation of the tumor by tracking contrast enhancement on eight sequential CT images (acquired on the Mx8000 IDT, Philips Medical scanner) before and after IV injection of acetazolamide. During each CT exam, first an unenhanced baseline scan was carried out. […]
(§4) A CT perfusion software package available from the scanner manufacturer was used for all perfusion measurements. […] Arterial and portal perfusion were calculated by measuring the slope of the time-density curve before (arterial) and after (venous) peak splenic enhancement and normalizing by the vascular input. A mean percent change in perfusion before and after CAI injection was calculated. […]

Another test concerns normal liver. Kind of test: Functional CT perfusion before and after acetazolamide, normal liver. Type of test: in vivo, New Zealand White rabbits. To be noted: acetazolamide 50 mg/kg IV, mean±SE.
Description: as §1, §2, §3, §4

A further test relates to small hepatoma. Kind of test: MRI perfusion study, baseline and AZ enhanced. Type of test: in vivo. From the text:
FIGS. 7(a-b) are plots illustrating MRI perfusion study with the solid line showing flow in a small hepatoma and the dotted line showing flow in the normal parenchyma. FIG. 7a illustrates a baseline perfusion study showing quicker and higher enhancement of tumor vs normal liver.

Test [1] relates to inflammatory pseudotumor (benign liver lesion). Kind of test: Contrast-enhanced CT before and after acetazolamide in a biopsy patient. The class given is in vivo, Humans. As for the experimental part:
FIG. 10 is a plot illustrating CT perfusion analysis of a biopsy proven inflammatory pseudotumor before and after acetazolamide (AZ) administration (AZ 250 mg+50 mL Optiray 320).
Several preliminary studies have been carried out using a protocol approved by the Institutional Review Board (IRB) of University Hospitals of Cleveland (FIGS. 10-11). One patient undergoing routine biopsy was screened using a pre- and post-acetazolamide injection contrast-enhanced CT scans. Following the scans, a biopsy of the tissue was taken and sent for routine histological analysis. On the image data, standard region of interest (ROI) analysis was used to obtain signal intensity values (in Hounsfield units or HU) over 600 seconds in normal liver and the mass. […] Our general hypothesis is that normal vessels either in normal liver or benign lesions respond to the vasodilatation, so the decrease in conspicuity results from dilatation of both vessel sites. […] This was confirmed by histological diagnosis. A patient with a suspected recurrent tumor underwent a similar protocol as above. Again, on the baseline scan, the lesion enhances less than the normal liver. […] Instead of creating a “steal”, the flow increases flow in the lesion indicating it has normal vessels consistent with benign inflammation. Again, the results were confirmed with CT-guided biopsy.

The test system of test [2] is suspected recurrent tumor in liver. Kind of test: MR of suspected recurrent liver tumor without and after Diamox. The class given is in vivo, Humans. To be noted: post Diamox scan vs baseline scan; lesion confirmed benign inflammation. The text has this:
FIGS. 11(a-c) are MR of suspected recurrent tumor in liver without (A) and after (B) vasodilator (Diamox), and image-guided biopsy confirmation (C). In A and B, the solid line corresponds to the lesion and the “dashed” line corresponds to the normal liver.
Several preliminary studies have been carried out using a protocol approved by the Institutional Review Board (IRB) of University Hospitals of Cleveland (FIGS. 10-11). One patient undergoing routine biopsy was screened using a pre- and post-acetazolamide injection contrast-enhanced CT scans. Following the scans, a biopsy of the tissue was taken and sent for routine histological analysis. On the image data, standard region of interest (ROI) analysis was used to obtain signal intensity values (in Hounsfield units or HU) over 600 seconds in normal liver and the mass. […] Our general hypothesis is that normal vessels either in normal liver or benign lesions respond to the vasodilatation, so the decrease in conspicuity results from dilatation of both vessel sites. […] This was confirmed by histological diagnosis. A patient with a suspected recurrent tumor underwent a similar protocol as above. Again, on the baseline scan, the lesion enhances less than the normal liver. […] Instead of creating a “steal”, the flow increases flow in the lesion indicating it has normal vessels consistent with benign inflammation. […]

Another test relates to liver. Particulars: Taki et al.; without systemic effects; cited from earlier work.
Another test has as its system kidney. Particulars: Taki et al.; without systemic effects; cited from earlier work.
Another test concerns woodchuck hepatoma. Kind of test: FDG PET uptake curves with and without phenylephrine. Type of test: in vivo. Particulars: PET with FDG and phenylephrine vs baseline FDG alone. From the text:
FIG. 8 is a plot illustrating FDG uptake curves in woodchuck hepatoma from two PET studies.

Another test concerns lung cancer. Kind of test: FDG PET of lung cancer before and after oral pseudoephedrine. The class given is in vivo. Particulars: after oral pseudoephedrine; baseline SUV 4.8. From the text:
FIGS. 9(a-b) are baseline CT (A) and corresponding PET (B) images of lung cancer. FIGS. 9(c-d) are images illustrating Tumor after oral pseudoephedrine. The tumor has not changed size on CT but has increased PET signal. SUV increased from 4.8 to 8.8, presumably due to increased blood flow to tumor and capture of FDG.

The subject of the next test is normal prostate vessels. Kind of test: DCE MRI of the normal prostate with vasoactive drugs. The class given is in vivo, person. As for the experimental part:
A person with no history of prostate cancer and normal PSA, volunteered for multiple DCE MRI exams of the prostate to evaluate vasoactive modulation of the normal blood flow. Three separate examinations were performed several weeks apart. The studies were performed on a Siemens 1.5T Symphony scanner. The DCE MRI examination included, Siemens's tfiperf, (inversion fisp) sequence. TR=3000, TE=1.27, TI=400 flip angle=50. Gadolinium Veresetamide […], injection at 2 cc/sec for a total of 20 cc. Images were obtained every 3 seconds for a total period of 5 minutes and every minute thereafter for 15 minutes.
All three studies were performed with identical MRI sequences and parameters. The first study was performed without a vasoactive drug but the second and third study were repeated with administration of a vasoactive drug, silfenadil or pseudoephedrine. […] The third DCE MRI was performed identical to the second study with the oral administration of 25 mg of silfenadil one hour before the study, and the administration of 60 mg of pseudoephedrine 20 minutes preceding the gadolinium injection. The absorption rate of each drug is quite predictable according to the literature so the initial part of the study performed before the pseudoephedrine was vasodilated and the subsequent study had vasodilator combined with a vasoconstrictor.
Data analysis was performed using ANALYZE data management software (Analyze Direct, Inc., Lenexa, Kans., 66215, USA) and Excel (Microsoft, Seattle, Wash.).
Data graphs were normalized to the blood flow of the iliac artery. The data was acquired during the five minute period following intravenous gadolinium injection and thereby provides a semiquantitative assessment of blood flow characteristics, see below data discussion.

The mark [3] stands for this setting: between 21 seconds and 72 seconds, 25 mg oral one hour prior.
Where [4] appears, read: gadolinium after sildenafil, FIG. 13 legend.

We go through four molecules from US20100080757A1, “METHOD OF DETECTING ABNORMAL TISSUE” (priority 2005, published 2010).

As to `CC(=O)Nc1nnc(S(N)(=O)=O)s1` [acetazolamide], in the test with hepatic artery, the “Increase in the blood flow through the hepatic artery” value is “about 18%”. In addition, the “Blood flow in the hepatic artery” value in the test on hepatic artery (after about 10 minutes) is listed as “about 3.1 ml/min”. Further, the “Blood flow in the hepatic artery” value in the test with hepatic artery (after about 20 minutes) is on record as “about 3.3 ml/min”. Moreover, in the test on VX2 tumor, the “Change in arterial perfusion” value was −31±9%, the “Change in total perfusion” value was −30±7% and the “Change in venous perfusion” value is reported as −20±12%. In the test with normal liver, the “Change in arterial perfusion” value is −3±33%, the “Change in total perfusion” value is on record as 41±18% and the “Change in venous perfusion” value is listed as 31±18%. In the test with small hepatoma, the “Enhancement of tumor vs normal liver” value is “decrease in enhancement of the tumor compared to the normal liver”. In addition, the Conspicuity in test [1] (after AZ injection (AZ 250 mg), 32 HU before, benign lesion) is listed as 15 HU. For the same molecule, the “Blood flow / signal intensity” value in [1] (post-acetazolamide contrast-enhanced CT, normal liver and mass) was “increases in the normal liver and in the mass”. Further, the “Enhancement of the lesion” value in test [2] is listed as “increases relative to the normal liver”. Besides, in the test with liver, the “Increase in blood flow to the liver” value was 75+/−36%. In addition, the “Increase in blood flow to the kidney” value in the test on kidney is recorded as 33+/−11%.
`CNC[C@H](O)c1cccc(O)c1` [phenylephrine]: the “FDG uptake in lesion” value with woodchuck hepatoma is recorded as “increased uptake”.
As for `CN[C@@H](C)[C@@H](O)c1ccccc1` [pseudoephedrine], the “SUV (FDG PET signal of tumor)” value in the test with lung cancer came to 8.8. For the same molecule, the “Reduction in the enhancement” value with normal prostate vessels (after 14 minutes, pseudoephedrine 60 mg oral on top of silfenadil 25 mg oral) is on record as “about 20%”. Further, the “Intensity in the equilibration phase” value in the test on normal prostate vessels (at 14 minutes, pseudoephedrine 60 mg oral after Sildenafil 25 mg oral) was “definite decrease in intensity”.
For the molecule `CCCc1nn(C)c2c(=O)[nH]c(-c3cc(S(=O)(=O)N4CCN(C)CC4)ccc3OCC)nc12` [sildenafil], the “Enhancement of the prostate gland on MRI image” value in the test on normal prostate vessels (after sildenafil 50 mg and gadolinium, vs study without Viagra (FIG. 16)) is recorded as “greater enhancement of the gland”. Moreover, in the test with normal prostate vessels (setting [3]), the “Increase of lateral lobe enhancement vs baseline study” value was determined as 78% and the “Increase of medial lobe enhancement vs baseline study” value amounted to 73%. Besides, in the test on normal prostate vessels (setting [4]), the “Enhancement greater than the enhanced undilated study, medial lobe” value came to 78% and the “Maximum enhancement greater than the enhanced, undilated study, lateral lobe” value came out at 73%. Also, the “Increase of enhancement curve vs baseline enhancement curve” value in the test with normal prostate vessels (throughout the entire scan period of 5 minutes (300 seconds), 25 mg oral one hour prior) is given as “more than 70%”.
